The source of these data is ChEMBL document CHEMBL4417631, “Oral peptide inhibitors of interleukin-23 receptor and their use to treat inflammatory bowel diseases” (2017).

In general, half-life refers to how long it takes for the measured level to halve. Low readings indicate rapid decline, high ones slow decline. In general, IC50 refers to the concentration needed to halve the response being measured.

*1 amine or outer side, *2 acyl side, *3 side chain or, on linkers, in order; H or OH if unused. Where a SMILES comes first, the peptide text is derived from it. Bridges are numbered along the chain shown (N, C = ends). [ ]: non-standard residue; d: D form. Abu(4-yl) = O=C([C@H](CC[*:3])N[*:1])[*:2]; 2Nal = N[C@@H](Cc1ccc2ccccc2c1)C(=O)O; AEF = NCCOc1ccc(C[C@H](N)C(=O)O)cc1; αMeK = C[C@](N)(CCCCN)C(=O)O Bounds are passed on as bounds.

Series [1] is described as follows: Half life in simulated gastric fluid at 20 uM by LC-MS/MS analysis. In kind it is ADME.
A short description of series [2]: Inhibition of interleukin-23 binding to rat interleukin-23 receptor incubated for 2 hrs by competitive binding ELISA.
The target in series [3] is T1, Interleukin-23 receptor (Homo sapiens, UniProt Q5VWK5).
T1 sequence (Q5VWK5 whole entry): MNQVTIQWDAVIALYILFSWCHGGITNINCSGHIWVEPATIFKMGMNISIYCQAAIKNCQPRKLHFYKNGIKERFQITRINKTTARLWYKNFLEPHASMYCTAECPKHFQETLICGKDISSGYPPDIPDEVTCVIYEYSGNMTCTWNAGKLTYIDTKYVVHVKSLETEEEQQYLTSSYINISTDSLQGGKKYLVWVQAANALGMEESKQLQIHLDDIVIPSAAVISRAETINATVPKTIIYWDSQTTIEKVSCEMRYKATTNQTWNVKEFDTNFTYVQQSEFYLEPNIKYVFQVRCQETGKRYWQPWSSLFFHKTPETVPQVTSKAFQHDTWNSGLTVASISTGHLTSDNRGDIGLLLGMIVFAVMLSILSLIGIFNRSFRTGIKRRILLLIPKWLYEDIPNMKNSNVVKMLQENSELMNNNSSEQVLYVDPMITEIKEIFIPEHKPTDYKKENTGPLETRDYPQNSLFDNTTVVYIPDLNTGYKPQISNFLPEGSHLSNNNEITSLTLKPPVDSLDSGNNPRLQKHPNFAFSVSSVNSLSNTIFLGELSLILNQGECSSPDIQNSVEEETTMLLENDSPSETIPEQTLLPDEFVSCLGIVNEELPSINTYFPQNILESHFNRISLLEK
The series can be described thus: Inhibition of interleukin-23 binding to human interleukin-23 receptor incubated for 2 hrs by competitive binding ELISA. For orientation: In an ELISA, binding on a coated surface is turned into a signal by an enzyme label.

The target of series [4] is T1, Interleukin-23 receptor. The series can be described thus: Inhibition of interleukin-23 receptor in human DB cells assessed as reduction in IL-23-stimulated STAT3 phosphorylation incubated for 30 mins by HTRF assay. The class given is cell-based.
Series [5] is described as follows: Half life in simulated intestinal fluid at 20 uM by LC-MS/MS analysis. The class given is ADME.

Consider `CC(=O)N[C@@H](CC(C)C)C(=O)N[C@H]1CCSC[C@@H](C(=O)N[C@@H](Cc2ccc(OCCN)cc2)C(=O)N[C@@H](Cc2ccc3ccccc3c2)C(=O)N[C@@](C)(CCCCN)C(=O)N[C@@H](CCC(=O)O)C(=O)N[C@@H](CC(N)=O)C(=O)N[C@@H](CC(N)=O)C(N)=O)NC(=O)[C@H](CCC(N)=O)NC(=O)[C@H](Cc2c[nH]c3ccccc23)NC(=O)[C@H]([C@@H](C)O)NC(=O)[C@H](CCC(N)=O)NC1=O` (Ac-L[Abu(4-yl)]QTWQC[AEF][2Nal][αMeK]ENN-NH2; thioether 2-7), for which the half-life at 20 µM was 2 to 3 h in series [1] and over 6 h in series [5]. The IC50 (in series [2]; on Interleukin-23 receptor [3]; on Interleukin-23 receptor [4]) was under 10 nM in each case.

On to `CC(=O)N[C@H]1CCSC[C@@H](C(=O)N[C@@H](Cc2ccc(OCCN)cc2)C(=O)N[C@@H](Cc2ccc3ccccc3c2)C(=O)NC2(C(=O)N[C@@H](CCC(=O)O)C(=O)N[C@@H](CC(N)=O)C(=O)N[C@@H](CC(N)=O)C(N)=O)CCNCC2)NC(=O)[C@H](CCC(N)=O)NC(=O)[C@H](Cc2c[nH]c3ccccc23)NC(=O)[C@H]([C@@H](C)O)NC(=O)[C@H](CCC(N)=O)NC1=O`, for which the half-life at 20 µM in series [1] and in series [5] was over 6 h in each case. Besides, the IC50 (in series [2]; at Interleukin-23 receptor [4]) was under 10 nM in each case.

On to `COc1ccc(C[C@H](NC(=O)[C@@H](NC(=O)[C@H](CCC(N)=O)NC(=O)[C@H](Cc2c[nH]c3ccccc23)NC(=O)[C@@H](NC(=O)[C@H](CCC(N)=O)NC(=O)[C@@H](NC(=O)[C@@H]2CCC(=O)N2)C(C)(C)S)[C@@H](C)O)C(C)(C)S)C(=O)N[C@@H](Cc2ccc3ccccc3c2)C(=O)N[C@@](C)(CCCCN)C(=O)N[C@@H](CCCCNC(C)=O)C(=O)N[C@@H](CC(N)=O)C(=O)NCC(N)=O)cc1`, for which the half-life at 20 µM in series [1] was 3 to 6 h; in series [5], over 6 h. Also, the IC50 is 25 to 100 nM in series [2], 25 to 100 nM on Interleukin-23 receptor [3] and under 10 nM on Interleukin-23 receptor [4].

For `COc1ccc(C[C@H](NC(=O)[C@@H]2CSCC[C@H](NC(=O)[C@@H](CCCCNC(=O)COCC(=O)NCCCC[C@@H](NC(C)=O)C(=O)N[C@H]3CCSC[C@@H](C(=O)N[C@@H](Cc4ccc(OC)cc4)C(=O)N[C@@H](Cc4ccc5ccccc5c4)C(=O)N[C@@](C)(CC(C)C)C(=O)N[C@@H](CCC(=O)O)C(=O)N[C@@H](CC(N)=O)C(=O)NCC(N)=O)NC(=O)[C@H](CCC(N)=O)NC(=O)[C@H](Cc4c[nH]c5ccccc45)NC(=O)[C@H]([C@@H](C)O)NC(=O)[C@H](CCC(N)=O)NC3=O)NC(C)=O)C(=O)N[C@@H](CCC(N)=O)C(=O)N[C@@H]([C@@H](C)O)C(=O)N[C@@H](Cc3c[nH]c4ccccc34)C(=O)N[C@@H](CCC(N)=O)C(=O)N2)C(=O)N[C@@H](Cc2ccc3ccccc3c2)C(=O)N[C@@](C)(CC(C)C)C(=O)N[C@@H](CCC(=O)O)C(=O)N[C@@H](CC(N)=O)C(=O)NCC(N)=O)cc1`, the half-life at 20 µM in series [1] is under 1 h; in series [5] it was 1 to 2 h. Moreover, the IC50 was 25 to 100 nM in series [2], under 10 nM at Interleukin-23 receptor [3] and under 10 nM at Interleukin-23 receptor [4].

As to `CC(=O)N[C@H]1CCSC[C@@H](C(=O)N[C@@H](Cc2ccc(OCCN)cc2)C(=O)N[C@@H](Cc2ccc3ccccc3c2)C(=O)NC2(C(=O)N[C@@H](CCC(=O)O)C(=O)N[C@@H](CC(N)=O)C(=O)N[C@@H](CC(N)=O)C(N)=O)CCCC2)NC(=O)[C@H](CCC(N)=O)NC(=O)[C@H](Cc2c[nH]c3ccccc23)NC(=O)[C@H]([C@@H](C)O)NC(=O)[C@H](CCC(N)=O)NC1=O`, the half-life at 20 µM is over 6 h in series [1] and 2 to 3 h in series [5]. The IC50 (in series [2]; at Interleukin-23 receptor [4]) was under 10 nM in each case.

With `COc1ccc(C[C@H](NC(=O)[C@@H]2CSCC[C@H](NC(C)=O)C(=O)N[C@@H](CCC(N)=O)C(=O)N[C@@H]([C@@H](C)O)C(=O)N[C@@H](Cc3c[nH]c4ccccc34)C(=O)N[C@@H](CCC(N)=O)C(=O)N2)C(=O)N[C@@H](Cc2cccc3ccccc23)C(=O)N[C@@](C)(CCCCN)C(=O)N[C@@H](CCCCNC(C)=O)C(=O)N[C@@H](CC(N)=O)C(=O)NCC(N)=O)cc1`, the half-life at 20 µM in series [1] was under 1 h; in series [5], over 6 h. Moreover, the figures for the half-maximal inhibitory concentration (IC50) (in series [2]; at Interleukin-23 receptor [3]; on Interleukin-23 receptor [4]) were 25 to 100 nM, 25 to 100 nM and 10 to 25 nM, respectively.

On to `CC(=O)N[C@H]1CCSC[C@@H](C(=O)N[C@@H](Cc2ccc3ccccc3c2)C(=O)N[C@@H](Cc2ccc3ccccc3c2)C(=O)N[C@@](C)(CCCCN)C(=O)N[C@@H](CCC(=O)O)C(=O)N[C@@H](CC(N)=O)C(=O)NCC(N)=O)NC(=O)[C@H](CCC(N)=O)NC(=O)[C@H](Cc2c[nH]c3ccccc23)NC(=O)[C@H]([C@@H](C)O)NC(=O)[C@H](CCC(N)=O)NC1=O` (Ac-[Abu(4-yl)]QTWQC[2Nal][2Nal][αMeK]ENG-NH2; thioether 1-6), for which the half-life at 20 µM was under 1 h in series [1] and 3 to 6 h in series [5]. In addition, the IC50 fell in the range of 25 to 100 nM in series [2] and 10 to 25 nM on Interleukin-23 receptor [3].

For `CC(=O)NCCCC[C@H](NC(=O)C(C)(C)NC(=O)[C@H](Cc1ccc2ccccc2c1)NC(=O)[C@H](Cc1ccc(OCCN)cc1)NC(=O)[C@@H]1CSCC[C@H](NC(C)=O)C(=O)N[C@@H](CCC(N)=O)C(=O)N[C@@H]([C@@H](C)O)C(=O)N[C@@H](Cc2c[nH]c3ccccc23)C(=O)N[C@@H](CCC(N)=O)C(=O)N1)C(=O)N[C@@H](CCC(N)=O)C(=O)NCC(N)=O`, the half-life at 20 µM in series [1] is under 1 h; in series [5] it was 2 to 3 h. The half-maximal inhibitory concentration (IC50) at Interleukin-23 receptor [3] is 10 to 25 nM; at Interleukin-23 receptor [4], under 10 nM.

Consider `CC(=O)NCCCC[C@H](NC(=O)[C@](C)(CO)NC(=O)[C@H](Cc1ccc2ccccc2c1)NC(=O)[C@H](Cc1ccc(OCCN)cc1)NC(=O)[C@@H]1CSCC[C@H](NC(C)=O)C(=O)N[C@@H](CCC(N)=O)C(=O)N[C@@H]([C@@H](C)O)C(=O)N[C@@H](Cc2c[nH]c3ccccc23)C(=O)N[C@@H](CCC(N)=O)C(=O)N1)C(=O)N[C@@H](CC(N)=O)C(=O)NCC(N)=O`, for which the results for the half-life at 20 µM in series [1] and in series [5] were 2 to 3 h and under 1 h, respectively. In addition, the IC50 at Interleukin-23 receptor [3] and at Interleukin-23 receptor [4] was under 10 nM each time.

`CC(=O)NCCCC[C@H](NC(=O)[C@](C)(CCCCN)NC(=O)[C@H](Cc1c[nH]c2ccccc12)NC(=O)[C@H](Cc1ccc(O)cc1)NC(=O)[C@@H](NC(=O)[C@H](CCC(N)=O)NC(=O)[C@H](Cc1c[nH]c2ccccc12)NC(=O)[C@@H](NC(=O)[C@H](CCC(N)=O)NC(=O)[C@@H](NC(C)=O)C(C)(C)S)[C@@H](C)O)C(C)(C)S)C(=O)N[C@@H](CC(N)=O)C(=O)NCC(N)=O`: the half-life at 20 µM in series [1] and in series [5] was over 6 h in each case. The IC50 lay within 100 to 1000 nM on Interleukin-23 receptor [3] and 25 to 100 nM on Interleukin-23 receptor [4].

Turning to `CC(=O)N[C@H]1CCSC[C@@H](C(=O)N[C@@H](Cc2ccc(OCCN)cc2)C(=O)N[C@@H](Cc2c[nH]c3ccccc23)C(=O)N[C@@H](CCC(C)C)C(=O)N[C@@H](CCC(=O)O)C(=O)N[C@@H](CC(N)=O)C(=O)NCC(N)=O)NC(=O)[C@H](CCC(N)=O)NC(=O)[C@H](Cc2c[nH]c3ccccc23)NC(=O)[C@H]([C@@H](C)O)NC(=O)[C@H](CCC(N)=O)NC1=O`, the half-life at 20 µM in series [1] and in series [5] was under 1 h in each case. In addition, the IC50 on Interleukin-23 receptor [3] was 10 to 25 nM; at Interleukin-23 receptor [4], under 10 nM.

For the compound `CC(=O)N[C@H]1CCSC[C@@H](C(=O)N[C@@H](Cc2ccc(OCCN)cc2)C(=O)N[C@@H](Cc2c[nH]c3ccccc23)C(=O)N[C@@](C)(CC(C)C)C(=O)N[C@@H](CCC(=O)O)C(=O)N[C@@H](CC(N)=O)C(=O)NCC(N)=O)NC(=O)[C@H](CCC(N)=O)NC(=O)[C@H](Cc2c[nH]c3ccccc23)NC(=O)[C@H]([C@@H](C)O)NC(=O)[C@H](CCC(N)=O)NC1=O`, the half-life at 20 µM in series [1] was 3 to 6 h; in series [5], over 6 h. In addition, the half-maximal inhibitory concentration (IC50) on Interleukin-23 receptor [3] and on Interleukin-23 receptor [4] was under 10 nM throughout.

Regarding `CC(=O)NCCCC[C@H](NC(=O)C(C)(C)NC(=O)[C@H](Cc1ccc2ccccc2c1)NC(=O)[C@H](Cc1ccc(OCCNC(C)=O)cc1)NC(=O)[C@@H](NC(=O)[C@H](CCC(N)=O)NC(=O)[C@H](Cc1c[nH]c2ccccc12)NC(=O)[C@@H](NC(=O)[C@H](CCC(N)=O)NC(=O)[C@@H](NC(C)=O)C(C)(C)S)[C@@H](C)O)C(C)(C)S)C(=O)N[C@@H](CC(N)=O)C(=O)N[C@@H](CCC(N)=O)C(N)=O`, the half-life at 20 µM in series [1] and in series [5] was over 6 h each time. The IC50 at Interleukin-23 receptor [3] and on Interleukin-23 receptor [4] was under 10 nM in each case.

`CC(=O)NCCCC[C@H](NC(=O)[C@](C)(CC(C)C)NC(=O)[C@H](Cc1ccc2ccccc2c1)NC(=O)[C@H](Cc1ccc(OCCNC(C)=O)cc1)NC(=O)[C@@H](NC(=O)[C@H](CCC(N)=O)NC(=O)[C@H](Cc1c[nH]c2ccccc12)NC(=O)[C@@H](NC(=O)[C@H](CCC(N)=O)NC(=O)[C@@H](NC(C)=O)C(C)(C)S)[C@@H](C)O)C(C)(C)S)C(=O)N[C@@H](CC(N)=O)C(=O)N[C@@H](CC(N)=O)C(N)=O`: the half-life at 20 µM in series [1] and in series [5] was over 6 h throughout. Moreover, the IC50 on Interleukin-23 receptor [3] and at Interleukin-23 receptor [4] was under 10 nM in each case.
